The values below come from patent US9987276B2 (Celgene CAR LLC, priority 2008, dated 2018).

Each structure is given as a SMILES string. Where two headings read alike, the source gives them in different places.

For test [1], the target named is T1, BTK (Homo sapiens (Human), UniProt Q06187). Put plainly: Omnia assay for potency assessment against BTK. The following applies: [BTK]=5 nM, Omnia assay; read-out: BTK Inhibition (IC50). It counts as biochemical. As to the method:
The modified BTK-optimized reagent conditions for the above protocol are:
[BTK]=5 nM, [ATP]=[…], [Y5-Sox]=[…] (ATP KMapp˜[…]).

Test [2] deals with T1, BTK. Put plainly: BTK Ramos cellular assay (PLCγ2 phosphorylation). It counts as cell-based. The following applies: Ramos cells, 1 hour compound, anti-IgM stimulation, p-PLCγ2; read-out: BTK Inhibition (IC50), BTK Ramos cellular inhibition. The method, then:
Ramos cells were grown in suspension in T225 flasks, spun down, resuspended in 50 ml serum-free media and incubated for 1 hour. […] Ramos cells were incubated with compound for 1 hour, washed again and resuspended in 100 ul serum-free media. Cells were then stimulated with 1 μg of goat F(ab′)2 Anti-Human IgM and incubated on ice for 10 minutes to activate B cell receptor signaling pathways. After 10 minutes, the cells were washed once with PBS and then lysed on ice with Invitrogen Cell Extraction buffer. 16 μg total protein from lysates were loaded on gel and blots were probed for phosphorylation of the BTK substrate PLCγ2.

For another test, the target named is ITK (Homo sapiens (Human), UniProt Q08881). Nature of the test: Omnia assay for potency assessment against active forms of ITK kinase. It counts as biochemical. The conditions noted are these: [ITK]=10 nM, [ATP]=25, [Y6-Sox]=10 μM; read-out: ITK Inhibition. As to the method: [ITK]=10 nM, [ATP]=25 [Y6-Sox]=10 μM (ATP KMapp=33 μM).
The next test has as its target EGFR-WT (Homo sapiens (Human), UniProt P00533). Nature of the test: Omnia assay for potency assessment against EGFR (WT).
Setting [3] is: read-out: EGFR (wild type inhibition), EGFR wild type.

Chain of ITK (Q08881 whole entry): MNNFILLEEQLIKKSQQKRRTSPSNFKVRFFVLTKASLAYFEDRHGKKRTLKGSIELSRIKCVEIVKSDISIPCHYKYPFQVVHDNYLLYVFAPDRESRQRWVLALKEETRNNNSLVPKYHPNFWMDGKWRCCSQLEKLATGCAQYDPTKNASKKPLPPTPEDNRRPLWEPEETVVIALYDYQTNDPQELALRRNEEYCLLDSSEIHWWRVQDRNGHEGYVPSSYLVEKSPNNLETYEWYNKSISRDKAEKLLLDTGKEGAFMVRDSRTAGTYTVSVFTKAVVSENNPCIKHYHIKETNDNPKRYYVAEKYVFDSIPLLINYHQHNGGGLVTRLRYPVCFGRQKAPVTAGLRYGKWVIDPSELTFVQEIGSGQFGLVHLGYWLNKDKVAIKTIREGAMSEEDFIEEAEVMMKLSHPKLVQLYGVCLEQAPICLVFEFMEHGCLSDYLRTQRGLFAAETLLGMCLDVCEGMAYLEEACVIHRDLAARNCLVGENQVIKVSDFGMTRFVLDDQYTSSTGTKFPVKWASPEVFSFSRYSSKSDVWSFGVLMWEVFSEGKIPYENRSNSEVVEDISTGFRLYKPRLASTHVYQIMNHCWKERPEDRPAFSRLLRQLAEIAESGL
Chain of EGFR-WT (P00533 668-1210): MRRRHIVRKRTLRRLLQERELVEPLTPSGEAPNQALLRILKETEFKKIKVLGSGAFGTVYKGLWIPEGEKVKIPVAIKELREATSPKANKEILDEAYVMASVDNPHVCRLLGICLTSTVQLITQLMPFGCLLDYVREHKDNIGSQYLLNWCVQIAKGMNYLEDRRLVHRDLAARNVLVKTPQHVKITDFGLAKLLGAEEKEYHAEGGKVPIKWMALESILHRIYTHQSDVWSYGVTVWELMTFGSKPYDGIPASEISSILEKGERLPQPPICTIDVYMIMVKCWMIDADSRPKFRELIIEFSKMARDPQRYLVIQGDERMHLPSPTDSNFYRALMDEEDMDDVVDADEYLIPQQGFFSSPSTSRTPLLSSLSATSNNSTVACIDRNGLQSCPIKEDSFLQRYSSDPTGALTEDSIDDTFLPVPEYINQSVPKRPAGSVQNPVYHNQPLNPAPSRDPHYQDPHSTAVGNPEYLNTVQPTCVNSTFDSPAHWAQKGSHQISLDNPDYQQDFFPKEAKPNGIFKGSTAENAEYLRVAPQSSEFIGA
T1 sequence (Q06187 whole entry): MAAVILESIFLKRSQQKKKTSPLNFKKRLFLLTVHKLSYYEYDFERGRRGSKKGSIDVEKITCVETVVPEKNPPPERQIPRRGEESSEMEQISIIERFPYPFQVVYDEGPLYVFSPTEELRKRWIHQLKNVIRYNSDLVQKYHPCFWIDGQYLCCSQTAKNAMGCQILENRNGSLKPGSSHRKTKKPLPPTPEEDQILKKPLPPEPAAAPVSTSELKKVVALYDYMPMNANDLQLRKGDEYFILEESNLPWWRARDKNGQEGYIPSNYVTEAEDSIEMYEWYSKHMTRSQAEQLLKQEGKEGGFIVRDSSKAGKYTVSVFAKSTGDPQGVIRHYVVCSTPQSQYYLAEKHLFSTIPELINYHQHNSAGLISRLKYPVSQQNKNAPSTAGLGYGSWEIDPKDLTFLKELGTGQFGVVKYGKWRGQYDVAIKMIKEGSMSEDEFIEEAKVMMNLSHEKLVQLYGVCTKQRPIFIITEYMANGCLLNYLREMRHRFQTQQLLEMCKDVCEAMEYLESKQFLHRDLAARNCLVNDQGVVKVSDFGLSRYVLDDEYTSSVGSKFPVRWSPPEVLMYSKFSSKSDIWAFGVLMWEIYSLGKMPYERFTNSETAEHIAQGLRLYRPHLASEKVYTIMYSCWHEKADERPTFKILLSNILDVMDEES

For the compound `C=CC(=O)Nc1cccc(Nc2nc(Nc3ccc(Cl)c(OCC(C)(C)O)c3)ncc2F)c1` [Compound I-249, N-(3-(2-(4-chloro-3-(2-hydroxy-2-methylpropoxy)phenylamino)-5-fluoropyrimidin-4-ylamino)phenyl)acrylamide], the IC50 at BTK [1] is less than 0.01 µM; at BTK [2], less than 0.01 µM; at ITK it was 0.1 to 1 µM; on EGFR-WT, 0.1 to 1 µM.

For `C=CC(=O)Nc1cccc(Nc2nc(Nc3cccc(OCC(C)(C)O)c3)ncc2F)c1` [Compound I-118, N-(3-(5-fluoro-2-(3-(2-hydroxy-2-methylpropoxy)phenylamino)pyrimidin-4-ylamino)phenyl)acrylamide], the IC50 on BTK [1] was less than 0.01 µM; at BTK [2] it was less than 0.01 µM; at ITK it was 0.01 to 0.1 µM; against EGFR-WT, 0.01 to 0.1 µM.

Regarding `C=CC(=O)Nc1cccc(Nc2nc(Nc3cccc(OCCO)c3)ncc2F)c1` [Compound I-105, N-(3-(5-fluoro-2-(3-(2-hydroxyethoxy)phenylamino)pyrimidin-4-ylamino)phenyl)acrylamide], the IC50 on BTK [1] is less than 0.01 µM; on BTK [2] it was less than 0.01 µM; at ITK, 0.01 to 0.1 µM; against EGFR-WT, 0.01 to 0.1 µM.

Take `C=CC(=O)N1CCC[C@@H](Oc2nc(Nc3cccc(OC)c3)ncc2F)C1` [Compound I-190, (R)-1-(3-(5-fluoro-2-(3-methoxyphenylamino)pyrimidin-4-yloxy)piperidin-1-yl)prop-2-en-1-one]: the IC50 was less than 0.01 µM on BTK [1], 0.01 to 0.1 µM on BTK [2], 0.01 to 0.1 µM at ITK and 0.1 to 1 µM against EGFR-WT.

Turning to `C=CC(=O)N1CCOc2ccc(Nc3nc(Nc4ccc(N(C)C(=O)C(F)(F)F)nc4)ncc3C(C)=O)cc21` [Compound I-142, N-(5-(5-acetyl-4-(4-acryloyl-3,4-dihydro-2H-benzo[b][1,4]oxazin-6-ylamino)pyrimidin-2-ylamino)pyridin-2-yl)-2,2,2-trifluoro-N-methylacetamide], the IC50 on BTK [1] is less than 0.01 µM; on BTK [2], 0.01 to 0.1 µM; at ITK it was less than 0.01 µM; against EGFR-WT, 0.01 to 0.1 µM.

Take `C=CC(=O)N1CCOc2ccc(Nc3nc(Nc4ccc(N5CCOCC5)nc4)ncc3C(C)=O)cc21` [Compound I-168, 1-{6-[5-Acetyl-2-(6-morpholin-4-yl-pyridin-3-ylamino)-pyrimidin-4-ylamino]-2,3-dihydro-benzo[1,4]oxazin-4-yl}-propenone]: the IC50 is less than 0.01 µM on BTK [1], 0.01 to 0.1 µM at BTK [2], less than 0.01 µM at ITK and 0.01 to 0.1 µM on EGFR-WT.

With `C=CC(=O)N1CCC(Nc2nc(Nc3cccc(OC)c3)ncc2F)C1` (stereo not drawn) [Compound I-201, 1-(3-(5-fluoro-2-(3-methoxyphenylamino)pyrimidin-4-ylamino)pyrrolidin-1-yl)prop-2-en-1-one], the IC50 at BTK [1] was less than 0.01 µM; on BTK [2], 0.1 to 1 µM; on ITK, 0.1 to 1 µM; at EGFR-WT, 0.01 to 0.1 µM.

Regarding `C=CC(=O)Nc1cc(Nc2nc(Nc3ccc(OC(C)C)nc3)ncc2F)ccc1Cl` [Compound I-107, N-(2-chloro-5-(5-fluoro-2-(6-isopropoxypyridin-3-ylamino)pyrimidin-4-ylamino)phenyl)acrylamide], the IC50 at BTK [1] was less than 0.01 µM; on BTK [2], 0.01 to 0.1 µM; at ITK it was 0.1 to 1 µM; against EGFR-WT, 0.1 to 1 µM.

`C=CC(=O)Nc1cccc(Oc2nc(Nc3ccc(OC)nc3)ncc2C(C)=O)c1` [Compound I-188, N-{3-[5-Acetyl-2-(6-methoxy-pyridin-3-ylamino)-pyrimidin-4-yloxy]-phenyl}-acrylamide]: the IC50 on BTK [1], at BTK [2], on ITK and on EGFR-WT (setting [3]) was less than 0.01 µM each time.

Turning to `C=CC(=O)Nc1cccc(Nc2nc(Nc3ccc(OC)nc3)ncc2OC)c1` [Compound I-192, N-(3-(5-methoxy-2-(6-methoxypyridin-3-ylamino)pyrimidin-4-ylamino)phenyl)acrylamide], the IC50 at BTK [1] is less than 0.01 µM; on BTK [2], 0.01 to 0.1 µM; at ITK, less than 0.01 µM; against EGFR-WT, 0.01 to 0.1 µM.

Regarding `C=C(C)C(=O)c1ccc(Nc2nc(Nc3ccccc3)ncc2F)cc1` [Compound I-185, 1-(4-(5-fluoro-2-(phenylamino)pyrimidin-4-ylamino)phenyl)-2-methylprop-2-en-1-one], the IC50 at BTK [1] is less than 0.01 µM; at BTK [2], 0.1 to 1 µM; at ITK, less than 0.01 µM; at EGFR-WT, 0.01 to 0.1 µM.

For `C=CC(=O)N(C)Cc1cccc(Nc2nc(Nc3ccccc3)ncc2C)c1` [Compound I-220, N-methyl-N-(3-(5-methyl-2-(phenylamino)pyrimidin-4-ylamino)benzyl)acrylamide], the IC50 at BTK [1] was less than 0.01 µM; on BTK [2] it was 0.01 to 0.1 µM; on ITK, 0.1 to 1 µM; against EGFR-WT it was 0.1 to 1 µM.

As for `C=CC(=O)Nc1cccc(Nc2nc(Nc3cccc(OC)c3)ncc2C(N)=O)c1` [Compound I-210, 4-(3-acrylamidophenylamino)-2-(3-methoxyphenylamino)pyrimidine-5-carboxamide], the IC50 at BTK [1] was less than 0.01 µM; at BTK [2], less than 0.01 µM; at ITK, 0.01 to 0.1 µM; at EGFR-WT (setting [3]), 0.01 to 0.1 µM.

`C=CC(=O)Nc1cccc(Nc2nc(Nc3ccc(OCCO)nc3)ncc2C(C)=O)c1` [Compound I-121, N-(3-{5-Acetyl-2-[6-(2-hydroxy-ethoxy)-pyridin-3-ylamino]-pyrimidin-4-ylamino}-phenyl)-acrylamide]: the IC50 on BTK [1] is less than 0.01 µM; on BTK [2], 0.01 to 0.1 µM; at ITK, less than 0.01 µM; at EGFR-WT, 0.01 to 0.1 µM.

As to `C=CC(=O)Nc1cccc(Nc2nc(Nc3ccc(OC)nc3)ncc2C#N)c1` [Compound I-173, N-(3-(5-cyano-2-(6-methoxypyridin-3-ylamino)pyrimidin-4-ylamino)phenyl)acrylamide], the IC50 at BTK [1], at BTK [2], at ITK and on EGFR-WT (setting [3]) was less than 0.01 µM each time.

Regarding `C=CC(=O)Nc1cccc(Nc2nc(Nc3ccccc3)ncc2C#N)c1` [Compound I-157, N-(3-(5-cyano-2-(phenylamino)pyrimidin-4-ylamino)phenyl)acrylamide], the IC50 at BTK [1], on BTK [2], at ITK and at EGFR-WT (setting [3]) was less than 0.01 µM each time.

As to `COc1ccc(Nc2ncc(F)c(Nc3cccc(NC(=O)/C=C/CN(C)C)c3)n2)cn1` [Compound I-125, (E)-4-(dimethylamino)-N-(3-(5-fluoro-2-(6-methoxypyridin-3-ylamino)pyrimidin-4-ylamino)phenyl)but-2-enamide], the IC50 is less than 0.01 µM on BTK [1], 0.01 to 0.1 µM at BTK [2], 0.01 to 0.1 µM on ITK and 0.1 to 1 µM against EGFR-WT.

For `C=CC(=O)Nc1cccc(Oc2nc(Nc3ccc(OC)nc3)ncc2C)c1` [Compound I-186, N-(3-(2-(6-methoxypyridin-3-ylamino)-5-methylpyrimidin-4-yloxy)phenyl)acrylamide], the IC50 on BTK [1], at BTK [2], on ITK and on EGFR-WT (setting [3]) was less than 0.01 µM each time.
